Non-standard residues stand in square brackets, D forms with d. No end group written: not given here. pY = N[C@@H](Cc1ccc(OP(=O)(O)O)cc1)C(=O)O
How the values were obtained:
[1] = tested on: EGF-mediated ERK phosphorylation; test: EGF-mediated ERK phosphorylation, Western blotting; format: cell-based; conditions: preincubated 2 hours, 30 ng/mL EGF for 30 minutes
Description: Figure 8 PS-Gp130 and PS-MYC blocking peptides efficiently internalize into tumor cells to exert their functions. (A) For 1 hour 1 μM of PS-conjugated MYC (PS-MYC) and Gp130 (PS-Gp130) were incubated with cancer cells. PS-scramble MYC (PS-SC-MYC) was used as a control for PS-MYC. The peptide uptake was visualized by confocal microscopy and quantified by flow cytometry. Data are representative of 3 independent experiments (n = 3). (B) Upper panel: The binding of PS-Gp130 and STAT3 was examined by immunoprecipitation and Western blotting. PO-Gp130 was used as a control. For 4 hours prior to harvest, 1 μM of peptide was incubated with cells. Lower panel: PS-Gp130 inhibits IL-6–induced phosphorylation of STAT3 and p44/42 but not EGF-mediated signaling. The cells were preincubated with PS-Gp130 for 2 hours and then stimulated with 20 ng/mL of IL-6 or 30 ng/mL of EGF for 30 minutes before harvest and Western blotting. (C) Gene expression of STAT3 targets was examined by quantitative PCR after the treatment with 1 μM of PS-Gp130 with or without IL-6 stimulation as described above. Data shown are 3 independent experiments (n = 3); SD is shown. Unpaired Student’s t test; ***P < 0.005; **P < 0.01; *P < 0.05. (D) A total of 1 μM of PS-SC-MYC or PS-MYC was incubated with cells for 48 hours before the gene expression of MYC targets was examined by quantitative PCR. […]

STAT3-regulated genes = test: Expression of STAT3 targets in HCT116 cells (Western blotting, qPCR); format: cell-based, human
Text: Figure 3 PS-acet.-STAT3 peptide inhibits STAT3 activity and downregulates the expression of STAT3 targets. (A) Downregulation of STAT3 activity and its downstream target proteins shown in human HCT116 colorectal cancer cells by Western blotting (data represent 1 of the 3 experiments, n = 3). PO-acet.-STAT3 and PS-STAT3-K685R peptides were used in parallel as controls. (B) STAT3 inhibition regulated the expression of proliferation and apoptotic genes, assessed by real-time quantitative PCR. Data present mean ± SD, n = 3 independent experiments, 1-way ANOVA; ***P < 0.005; **P < 0.01. […] For p53 promoter assay, data represent 3 replicates in 3 independent experiments (n = 9). […]
Whole cell lysates or tissue homogenates were prepared by using RIPA lysis buffer (50 mM Tris at pH 7.4, 150 mM NaCl, 1 mM EDTA, 0.5% NP-40, 1 mM NaF, 15% glycerol, and 20 mM β-glycerophosphate). […] Protein amounts were determined by BCA using a Thermo Fisher Scientific kit. […]
Total RNA was extracted from cultured or tumor tissues using RNeasy kit (QIAGEN), according to manufacturer’s instruction. After cDNA synthesis using iScript cDNA Synthesis kit (Bio-Rad), samples were analyzed using pairs of primers specific for CASP9, CASP3, CASP8, BIRC5, BCL2L1, MYC, TP53, VEGF, IL1B, SERPIN3, FGA, CDK4, CCND2, CDKN2A, CDKN2B, GADD45A, mCD274, mMmp9, and mBirc5, as indicated. […]

Substance	EGF-mediated ERK phosphorylation [1]	expression of STAT3-regulated genes Survivin (BIRC5) and MYC, protein and mRNA (STAT3-regulated genes; HCT116, approximately 1 μM)	expression of STAT3-suppressed apoptotic genes TP53, CASP9, CASP3 (STAT3-regulated genes; HCT116 and LoVo, real-time quantitative PCR)
PS-Gp130: PS-conjugated Gp130 peptide (amino acids 901–910) with phospho-Tyr905 (MPKS[pY]LPQTV; also: phosphorothioate oligonucleotide conjugate; UniProt P40189 901-910, looked up, fragment)	not		
PDIPKEEAFGK685(Ac)YCRPESQEHPC-linker-T*C*C*A*T*G*A*G*C*T*T*C*C*T*G*A*T*G*C*T [PS-acet.-STAT3 peptide]		significant downregulation	upregulated

Source: publication PMC7934871 (JCI Insight, 2021)
